Assay results reported in ChEMBL document CHEMBL5550161, “Discovery of novel small molecules targeting the USP21/JAK2/STAT3 axis for the treatment of triple-negative breast cancer” (Eur J Med Chem, 2024).
Calls of active or inactive are those of the source. The rule behind the calls is not given here.

Key:
MCF7 = assay: Anti-proliferative activity against human MCF7 cells assessed as cell growth inhibition incubated for 72 hrs by MTT assay; type: functional, cell-based; settings: MCF7, 72 h
MDA-MB-231 [1] = assay: Anti-proliferative activity against human MDA-MB-231 cells assessed as cell growth inhibition incubated for 72 hrs by MTT assay; type: functional, cell-based; settings: MDA-MB-231, 72 h
MDA-MB-231 [2] = assay: Induction of apoptosis in human MDA-MB-231 cells assessed as necrotic cells at 0.1 uM incubated for 24 hrs by Annexin V-FITC/PI staining based flow cytometry (reference value: 0.07 %); type: functional
MDA-MB-231 [3] = assay: Induction of apoptosis in human MDA-MB-231 cells assessed as early apoptotic cells at 0.2 uM incubated for 24 hrs by Annexin V-FITC/PI staining based flow cytometry (reference value: 1.16 %); type: functional
MDA-MB-231 [4] = assay: Induction of apoptosis in human MDA-MB-231 cells assessed as necrotic cells at 0.2 uM incubated for 24 hrs by Annexin V-FITC/PI staining based flow cytometry (reference value: 0.07 %); type: functional
MDA-MB-231 [5] = assay: Induction of apoptosis in human MDA-MB-231 cells assessed as viable cells at 0.8 uM incubated for 24 hrs by Annexin V-FITC/PI staining based flow cytometry (reference value: 97.54 %); type: functional; settings: read-out: Activity
MDA-MB-231 [6] = assay: Induction of apoptosis in human MDA-MB-231 cells assessed as necrotic cells at 0.8 uM incubated for 24 hrs by Annexin V-FITC/PI staining based flow cytometry (reference value: 0.07 %); type: functional
MDA-MB-231 [7] = assay: Induction of apoptosis in human MDA-MB-231 cells assessed as early apoptotic cells at 1.6 uM incubated for 24 hrs by Annexin V-FITC/PI staining based flow cytometry (reference value: 1.16 %); type: functional
MDA-MB-231 [8] = assay: Induction of apoptosis in human MDA-MB-231 cells assessed as late apoptotic cells at 1.6 uM incubated for 24 hrs by Annexin V-FITC/PI staining based flow cytometry (reference value: 1.23 %); type: functional
MDA-MB-231 [9] = assay: Induction of apoptosis in human MDA-MB-231 cells assessed as necrotic cells at 1.6 uM incubated for 24 hrs by Annexin V-FITC/PI staining based flow cytometry (reference value: 0.07 %); type: functional
HCC1806 [10] = assay: Induction of apoptosis in human HCC1806 cells assessed as necrotic cells at 0.1 uM incubated for 24 hrs by Annexin V-FITC/PI staining based flow cytometry (reference value: 0.15 %); type: functional
HCC1806 [11] = assay: Induction of apoptosis in human HCC1806 cells assessed as necrotic cells at 0.2 uM incubated for 24 hrs by Annexin V-FITC/PI staining based flow cytometry (reference value: 0.15 %); type: functional
HCC1806 [12] = assay: Induction of apoptosis in human HCC1806 cells assessed as viable cells at 0.4 uM incubated for 24 hrs by Annexin V-FITC/PI staining based flow cytometry (reference value: 98.95 %); type: functional; settings: read-out: Activity
HCC1806 [13] = assay: Induction of apoptosis in human HCC1806 cells assessed as late apoptotic cells at 0.4 uM incubated for 24 hrs by Annexin V-FITC/PI staining based flow cytometry (reference value: 0.23 %); type: functional
HCC1806 [14] = assay: Induction of apoptosis in human HCC1806 cells assessed as necrotic cells at 0.4 uM incubated for 24 hrs by Annexin V-FITC/PI staining based flow cytometry (reference value: 0.15 %); type: functional
HCC1806 [15] = assay: Induction of apoptosis in human HCC1806 cells assessed as viable cells at 0.8 uM incubated for 24 hrs by Annexin V-FITC/PI staining based flow cytometry (reference value: 98.95 %); type: functional; settings: read-out: Activity
HCC1806 [16] = assay: Induction of apoptosis in human HCC1806 cells assessed as early apoptotic cells at 0.8 uM incubated for 24 hrs by Annexin V-FITC/PI staining based flow cytometry (reference value: 0.67 %); type: functional
HCC1806 [17] = assay: Induction of apoptosis in human HCC1806 cells assessed as late apoptotic cells at 0.8 uM incubated for 24 hrs by Annexin V-FITC/PI staining based flow cytometry (reference value: 0.23 %); type: functional
HCC1806 [18] = assay: Induction of apoptosis in human HCC1806 cells assessed as late apoptotic cells at 1.6 uM incubated for 24 hrs by Annexin V-FITC/PI staining based flow cytometry (reference value: 0.23 %); type: functional
HCC1806 [19] = assay: Induction of apoptosis in human HCC1806 cells assessed as ROS production rate at 0.1 uM incubated for 24 hrs by DCFH-DA staining based flow cytometry (reference value: 0.23 %); type: functional
HCC1806 [20] = assay: Induction of apoptosis in human HCC1806 cells assessed as ROS production rate at 0.2 uM incubated for 24 hrs by DCFH-DA staining based flow cytometry (reference value: 0.23 %); type: functional
HCC1806 [21] = assay: Induction of apoptosis in human HCC1806 cells assessed as ROS production rate at 0.4 uM incubated for 24 hrs by DCFH-DA staining based flow cytometry (reference value: 0.23 %); type: functional
HCC1806 [22] = assay: Inhibition of cell invasion in human HCC1806 cells; type: functional, cell-based; settings: dose 0.05-2 µM
MDA-MB-231 [23] = assay: Induction of apoptosis in human MDA-MB-231 cells assessed as decrease in JAK1 level by Western blot analysis; type: functional, cell-based; settings: dose 0.1-0.4 µM
MDA-MB-231 [24] = assay: Induction of apoptosis in human MDA-MB-231 cells assessed as decrease in JAK2 level by Western blot analysis; type: functional, cell-based; settings: dose 0.1-0.4 µM
MDA-MB-231 [25] = assay: Induction of apoptosis in human MDA-MB-231 cells assessed as decrease in STAT3 level by Western blot analysis; type: functional, cell-based; settings: dose 0.1-0.4 µM
MDA-MB-231 [26] = assay: Induction of apoptosis in human MDA-MB-231 cells assessed as decrease in STAT3 phosphorylation at Y705 by Western blot analysis; type: functional, cell-based; settings: dose 0.1-0.4 µM
HCC1806 [27] = assay: Induction of apoptosis in human HCC1806 cells assessed as decrease in STAT3 level by Western blot analysis; type: functional, cell-based; settings: dose 0.1-0.4 µM
HCC1806 [28] = assay: Induction of apoptosis in human HCC1806 cells assessed as decrease in STAT3 phosphorylation at Y705 by Western blot analysis; type: functional, cell-based; settings: dose 0.1-0.4 µM
HCC1806 [29] = assay: Upregulation of JAK2 mRNA level in human HCC1806 cells at 0.2 uM incubated for 18 to 72 hrs; type: functional, cell-based; settings: time 18-72 hrs
HCC1806 [30] = assay: Downregulation of USP21 level in human HCC1806 cells at 0.1 to 0.4 uM incubated for 24 hrs by Western blot analysis; type: functional, cell-based; settings: dose 0.1-0.4 µM
HCC1806 [31] = assay: Downregulation of SOCS3 level in human HCC1806 cells at 0.1 to 0.4 uM incubated for 24 hrs by Western blot analysis; type: functional, cell-based; settings: dose 0.1-0.4 µM
[32] = Half life in Sprague-Dawley rat at 4 mg/kg, ip; type: ADME, organism-based; settings: in vivo
[33] = Cmax in Sprague-Dawley rat at 4 mg/kg, ip; type: ADME, organism-based; settings: in vivo
[34] = AUC (0 to infinity) in Sprague-Dawley rat at 4 mg/kg, ip; type: ADME, organism-based; settings: in vivo
[35] = Toxicity in Balb/c nude mouse assessed as histopathological change in liver at 60 mg/kg, ip bid for 14 days consecutively; type: organism-based; settings: in vivo, 336 h, time 14 day
[36] = Toxicity in Balb/c nude mouse assessed as histopathological change in spleen at 60 mg/kg, ip bid for 14 days consecutively; type: organism-based; settings: in vivo, 336 h, time 14 day
[37] = Toxicity in Balb/c nude mouse assessed as histopathological change in lung at 60 mg/kg, ip bid for 14 days consecutively; type: organism-based; settings: in vivo, 336 h, time 14 day

Question: Which results are given for COc1cc(Nc2cc(F)ccc2C(=O)NCCc2c[nH]c3c(F)ccc(F)c23)cc(OC)c1OC?
Answer: IC50 (MCF7): 1450 nM; IC50 (MDA-MB-231 [1]): 190 nM; Activity (MDA-MB-231 [2]): 0.19%; Activity (MDA-MB-231 [3]): 1.99%; Activity (MDA-MB-231 [4]): 0.19%; viability at 0.8 µM (MDA-MB-231 [5]): 94.6%; Activity (MDA-MB-231 [6]): 0.11%; Activity (MDA-MB-231 [7]): 7.55%; Activity (MDA-MB-231 [8]): 4.95%; Activity (MDA-MB-231 [9]): 0.09%; Activity (HCC1806 [10]): 0.11%; Activity (HCC1806 [11]): 0.33%; viability at 0.4 µM (HCC1806 [12]): 96%; Activity (HCC1806 [13]): 0.76%; Activity (HCC1806 [14]): 0.28%; viability at 0.8 µM (HCC1806 [15]): 94%; Activity (HCC1806 [16]): 4.23%; Activity (HCC1806 [17]): 1.48%; Activity (HCC1806 [18]): 1.92%; Activity (HCC1806 [19]): 0.66%; Activity (HCC1806 [20]): 2.3%; Activity (HCC1806 [21]): 5%; inhibition (HCC1806 [22]): Active; Activity (MDA-MB-231 [23]): Active; Activity (MDA-MB-231 [24]): Active; Activity (MDA-MB-231 [25]): Active; Activity (MDA-MB-231 [26]): Active; Activity (HCC1806 [27]): Active; Activity (HCC1806 [28]): Active; Activity (HCC1806 [29]): Active; Activity (HCC1806 [30]): Active; Activity (HCC1806 [31]): Active; half-life [32]: 5.57 h; Cmax [33]: 229 ng/mL; AUC(0-inf) [34]: 1970 ng·h/mL; Activity [35]: Non-Toxic; Activity [36]: Non-Toxic; Activity [37]: Non-Toxic
